Patent US9814696B2, “Use of coumarin derivatives for the preparation of drugs for treating skin diseases” (UNIVERSITE PIERRE ET MARIE CURIE (PARIS 6), priority 2011, dated 2017)
Where two headings read alike, the source gives them in different places.

Assays:
KLK7 = KLK7 (Homo sapiens, UniProt P49862); experiment: KLK7 enzyme inhibition assay, fluorogenic substrate Suc-Leu-Leu-Val-Tyr-AMC; format: biochemical; conditions: for IC50: 37° C., 15 min of incubation, pH 8; for selective activity against enzyme: KLK7: Table B, among KLK5, KLK7 and KLK14
Procedure: (§1) Kallikreins KLK5, KLK7 and KLK14 activities were determined by monitoring the hydrolysis of the appropriate fluorogenic substrate (λexc=355, λem=460 nm) for 15 min at 37° C. in the presence of the untreated kallikrein (control) or kallikrein that had been incubated with a test compound. Substrate and compounds were previously dissolved in DMSO, with the final solvent concentration kept constant at 2% (v/v) (KLK 5 and 14), and 4% (v/v) (KLK7). The composition of the activity buffers (pH 8.0) was 100 mM Tris-HCl, 150 mM NaCl, 0.01% (v/v) Tween 20 for the KLK5 assay, and 100 mM Tris-HCl, 1M NaCl, 0.01% (v/v) Tween 20 in the KLK 7 and 14 assays. The final concentrations were 0.6 nM (KLK5) and 100 μM (Boc-Val-Pro-Arg-AMC) (KLK5 assay), 8 nM (KLK7) and 40 μM (Suc-Leu-Leu-Val-Tyr-AMC, AMC: 7-amino-4-methyl-coumarin) (KLK7 assay), and 0.17 nM (KLK14) and 10 μM (Boc-Val-Pro-Arg-AMC) (KLK14 assay). Using the appropriate substrate, the coumarinic compounds (0.01-100 μM) were tested in duplicate for each inhibitor concentration to detect their inhibitory potential. The enzyme and the inhibitors were incubated for 15 min before the determination of the enzyme activity. Initial rates determined in control experiments (V0) were considered to be 100% of the peptidase activity; initial rates below 100% were considered to be inhibitions. The inhibitory activity of compounds was expressed as IC50 (inhibitor concentrations giving 50% inhibition). The values of IC50 were calculated by fitting the experimental data to the equation: % Inhibition=100×(1−Vi/V0)=100[I]0/(IC50+[I]0), or equation: % Inhibition=100[I]0^nH/(IC50^nH+[I]0^nH),nH is the Hill number.
(§2) The tests were realized at 37° C. after 15 min of incubation at pH 8.

[1] = test system: normal human keratinocytes; experiment: Neutral red uptake (NRU) cytotoxicity test / cell viability; format: cell-based; design: cytotoxicity, neutral red uptake test (FIG. 5): dose or concentration left out as unconfirmed; conditions: 48 h; for cytotoxicity, neutral red uptake test: 1 and 10 μM; for cytotoxicity, neutral red uptake test / cytotoxicity, neutral red uptake test (FIG. 5): human normal keratinocytes; for Toxicity, neutral red uptake test: normal human keratinocytes
Text: The NRU cytotoxicity assay procedure is a cell survival/viability chemosensitivity assay based on the ability of viable cells to incorporate and bind neutral red (NR), a supravital dye. NR is a weak cationic dye that readily penetrates cell membranes by non-ionic diffusion and accumulates intracellularly in lysosomes. Alterations of the cell surface or the sensitive lysosomal membrane lead to lysosomal fragility and other changes that gradually become irreversible. Such changes caused by the action of xenobiotics result in a decreased uptake and binding of NR. It is thus possible to distinguish between viable, damaged, or dead cells, which is the basis of this assay. After treatment with the small-molecules inhibitors, NR uptake in cells will be measured by spectrophotometry at 540±10 nm.
Keratinocytes from healthy persons or patients with Netherton syndrome are seeded at the density of 4000 cells in 125 μL of medium per well in 96-well plates.
After seeding, cells are incubated for 48 hours in the following experimental conditions: 37° C.±1° C., 90%±5.0% humidity, and 5%±1% CO2/air. This incubation period allows for cell recovery and adherence and progression to exponential growth phase.
Prepare inhibitors solutions 2-fold more concentrated than desired. Add 125 μL of these solutions to the wells without changing or removing the medium (125 μL).
48 h hours after the beginning of the treatment, carefully remove the medium (containing the tested inhibitor) and rinse the cells very carefully with 250 μL pre-warmed PBS.
Add 250 μL NR medium and incubate (37° C.±1° C., 90%±5% humidity, and 5.0%±1% CO2/air) for 3±0.1 h. NR medium is the culture medium containing 33 μg/mL of NR. After incubation, remove the NR medium, and carefully rinse cells with 250 μL pre-warmed PBS.
Measure the absorption (within 60 minutes after adding NR Desorb solution) of the resulting colored solution at 540 nm±10 nm in a microtiter plate reader (spectrophotometer), using the blank as a reference.
A calculation of cell viability expressed as NRU is made for each concentration of the tested inhibitor by using the mean NRU of the three replicate values per each concentration. This value is compared with the mean NRU of all vehicle values. Relative cell viability is then expressed as percent of untreated vehicle control (DMSO).
Normal human keratinocytes were seeded in a 96-well tissue culture plate. At 20% of confluence, molecules were added in the culture medium and incubated for 48 h. Neutral red medium was added to every well for an incubation period of 3 h, then the dye was extracted with acidified ethanol solution. Data (FIGS. 2 and 3) represent the mean cell viability after treatment +/−SD compared to mean viability of cells treated with the vehicle only (DMSO). Data represent the mean of 5 individual experiments.

KLK5 = target: T1, KLK5 (Homo sapiens, UniProt Q9Y337); experiment: KLK5 enzyme inhibition assay, fluorogenic substrate Boc-Val-Pro-Arg-AMC; format: biochemical; conditions: 37° C., 15 min of incubation, pH 8
T1 sequence (Q9Y337 23-293): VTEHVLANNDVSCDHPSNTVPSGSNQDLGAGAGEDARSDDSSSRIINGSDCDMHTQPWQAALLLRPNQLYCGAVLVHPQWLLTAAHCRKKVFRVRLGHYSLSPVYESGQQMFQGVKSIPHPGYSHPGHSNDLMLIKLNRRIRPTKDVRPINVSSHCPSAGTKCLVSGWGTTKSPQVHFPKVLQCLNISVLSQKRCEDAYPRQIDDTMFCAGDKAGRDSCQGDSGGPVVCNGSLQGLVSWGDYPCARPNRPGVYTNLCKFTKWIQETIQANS
Procedure: as §1, §2

KLK14 = target: T2, KLK14 (Homo sapiens, UniProt Q9P0G3); experiment: KLK14 enzyme inhibition assay, fluorogenic substrate Boc-Val-Pro-Arg-AMC; format: biochemical; conditions: for inhibition at 50 µM / IC50 / inhibition at 100 µM: 37° C., 15 min of incubation, pH 8
T2 sequence (Q9P0G3 25-251): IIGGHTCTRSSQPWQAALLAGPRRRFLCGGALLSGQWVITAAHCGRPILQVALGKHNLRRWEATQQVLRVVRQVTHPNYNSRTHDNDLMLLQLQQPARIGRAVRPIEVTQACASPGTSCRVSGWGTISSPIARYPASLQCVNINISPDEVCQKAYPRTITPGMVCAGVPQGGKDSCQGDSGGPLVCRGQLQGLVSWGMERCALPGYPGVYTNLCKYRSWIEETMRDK
Procedure: as §1, §2

[2] = test system: keratinocytes from a Netherton syndrome patient (NSK); experiment: Expression of pro-allergic and inflammatory molecules (indirect KLK5 activity) in Netherton syndrome patient keratinocytes; format: cell-based, human; conditions: 72 h, relative to HPRT
Procedure: 250,000 keratinocytes from a Netherton syndrome patient (NSK) were seeded in 6 well plates in 2 mL of medium made of: (a) half of complete Green medium: (Dulbecco's Modified Eagle Media) 60%; Ham's F12 30%; FCS 10%; adenin […]; insulin 5 μg/mL; hydrocortisone 0.4 μg/mL; cholera toxin 10 nM; triiodothyronin 2 nM; human recombinant EGF 10 ng/mL; penicillin G/streptomycin 100 U/mL; (b) half of a basal medium (Epilife—Cascade Biologics).
When confluent, cells were washed 5 times with PBS and 2 mL of complete Green medium without FCS (fetal calf serum) were added per well.
Inhibitors were added in the culture medium 24 h after medium renewal.
350 μL of RLT lysis buffer (Mini Kit QIAGEN)+β-mercapto-ethanol (0.1%) were added per well to extract total RNA. The cell lysate was kept at −80° C. before RNA extraction (Mini Kit QIAGEN).
In this in cellulo test, KLK5 activity was evaluated by an indirect method. Indeed KLK5 induces TSLP (thymic stromal lymphopoietin), TNFα (tumor necrosis factor alpha) and IL-8 (interleukin 8) expression. If KLK5 activity is inhibited, the expression of these cytokines will be reduced.
The relative amount of TSLP, TNFα and IL-8 transcripts [relative to HPRT (hypoxanthine phosphoribosyltransferase 1) housekeeping gene] was compared between cells treated or not treated with the inhibitors. The ratio <<treated/not treated>> relative to housekeeping gene reflects KLK5 inhibition.
Their expression had also been studied even if their mechanism of induction is not known yet.
The effect of LP73 and CFL33 on the expression of the described pro-allergic and inflammatory cytokines was analyzed on keratinocytes from two different NS patients. Each experiment was performed twice (FIG. 4).

[3] = Table A, read-out: IC50 (μM) KLK7
[4] = Table A2, read-out: IC50 (nM) KLK7
[5] = Table A, read-out: IC50 (μM) KLK14

KLK7, sequence (P49862 30-253): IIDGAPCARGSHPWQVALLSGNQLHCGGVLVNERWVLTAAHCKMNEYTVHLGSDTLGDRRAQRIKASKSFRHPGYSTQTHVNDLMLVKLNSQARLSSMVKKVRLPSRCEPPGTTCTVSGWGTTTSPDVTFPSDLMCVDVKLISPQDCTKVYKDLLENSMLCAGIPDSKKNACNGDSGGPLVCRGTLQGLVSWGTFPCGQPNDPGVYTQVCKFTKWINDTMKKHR

Row | Structure (SMILES) | IC50 (KLK7; [3]) | cytotoxicity, neutral red uptake test [1] | selective activity against enzyme: KLK7 (KLK7) | inhibition at 100 µM (KLK14) | also measured
1 | COc1cc(Cl)cc(OC(=O)c2cc3cc(CCl)ccc3oc2=O)c1 [LP61] | 0.13 ± 0.005 µM | No noticeable cytotoxicity |  |  | 
2 | O=C(Oc1ccccc1)c1cc2cc(CBr)ccc2oc1=O [JFR5, Phenyl 6-bromomethyl-2-oxo-2H-1-benzopyran-3-carboxylate] |  |  |  |  | inhibition at 50 µM (KLK5): 34%; IC50 (KLK7; [4]): 0.249 ± 0.0035 µM; cytotoxicity, neutral red uptake test (FIG. 5) [1]: No noticeable cytotoxicity; inhibition at 50 µM (KLK14): 53%
3 | O=C(Oc1cccc(F)c1)c1cc2cc(CBr)ccc2oc1=O [JFR11, 3-Fluorophenyl 6-bromomethyl-2-oxo-2H-1-benzopyran-3-carboxylate] |  |  |  |  | inhibition at 50 µM (KLK5): 42%; IC50 (KLK7; [4]): 0.198 ± 0.008 µM; cytotoxicity, neutral red uptake test (FIG. 5) [1]: No noticeable cytotoxicity; inhibition at 50 µM (KLK14): 48%
4 | O=C(Oc1cccc(Br)c1)c1cc2cc(CBr)ccc2oc1=O [JFR8, 3-Bromophenyl 6-bromomethyl-2-oxo-2H-1-benzopyran-3-carboxylate] |  |  | KLK7 |  | IC50 (KLK5; Table A2, read-out: IC50 (nM) KLK5): 1470 ± 60 nM; IC50 (KLK7; [4]): 0.057 ± 0.002 µM; cytotoxicity, neutral red uptake test (FIG. 5) [1]: No noticeable cytotoxicity; IC50 (KLK14; Table A2, read-out: IC50 (nM) KLK14): 3000 ± 100 nM
5 | COC(=O)c1cccc(OC(=O)c2cc3cc(CCl)ccc3oc2=O)c1 [IK2] | 0.68 ± 0.01 µM | No noticeable cytotoxicity | KLK7 | 67% | 
6 | O=C(Oc1ccccc1)c1cc2cc(CCl)ccc2oc1=O [MFS7] | 0.235 ± 0.009 µM | No noticeable cytotoxicity | KLK7 | 45% | inhibition at 50 µM (KLK5): 26%
7 | O=C(Oc1ccc(Cl)cc1)c1cc2cc(CCl)ccc2oc1=O [LP7] | 0.463 ± 0.007 µM | No noticeable cytotoxicity |  |  | 
8 | COc1cccc(OC(=O)c2cc3cc(CCl)ccc3oc2=O)c1 [LP55] | 8.4 ± 0.2 µM | No noticeable cytotoxicity | KLK7 |  | 
9 | O=C(Sc1ccccc1)c1cc2cc(CCl)ccc2oc1=O [LP41] | 0.39 ± 0.03 µM | No noticeable cytotoxicity |  | 67% | inhibition at 100 µM (KLK5): 32%
10 | O=C(Oc1cccc(Br)c1)c1cc2cc(CCl)ccc2oc1=O [LP53] | 0.065 ± 0.003 µM | No noticeable cytotoxicity | KLK7 | 41% | inhibition at 50 µM (KLK5): 34%
11 | NC(=O)c1cccc(OC(=O)c2cc3cc(CCl)ccc3oc2=O)c1 [IK4] | 7.8 ± 0.6 µM | No noticeable cytotoxicity |  |  | IC50 (KLK5; Table A, read-out: IC50 (μM) KLK5): 21600 ± 5000 nM; IC50 (KLK14; [5]): 30000 ± 8000 nM
12 | O=C(Oc1cccnc1)c1cc2cc(CCl)ccc2oc1=O [MFS33] |  | No noticeable cytotoxicity |  | 60% | inhibition at 100 µM (KLK5): 62%; IC50 (KLK7; [4]): 0.0057 ± 0.0003 µM
13 | NC(=O)c1ccccc1OC(=O)c1cc2cc(CCl)ccc2oc1=O [IK3] |  |  |  | 77% | Toxicity, neutral red uptake test ([1]; 1 μM): 16.09±8.32%; Toxicity, neutral red uptake test ([1]; 10 μM): 47.1±4.43%; selective activity against enzyme: KLK14 (KLK14; Table B, among KLK5, KLK7 and KLK14): KLK14
14 | O=C(Oc1cccc(Cl)c1Cl)c1cc2cc(CCl)ccc2oc1=O [LP73] | 0.063 ± 0.004 µM | No noticeable cytotoxicity | KLK7 |  | expression of IL-8 ([2]; 1 μM): significantly inhibited; expression of MDC ([2]; 1 μM): significantly inhibited; expression of TARC ([2]; 1 μM): significantly inhibited; expression of TNFα ([2]; 1 μM): significantly inhibited; expression of TSLP ([2]; 1 μM): significantly inhibited; expression of TARC ([2]; 10 μM): inhibited; expression of TSLP ([2]; 10 μM): inhibited
15 | O=C(Oc1cc(F)ccc1F)c1cc2cc(CCl)ccc2oc1=O [CFL5] | 0.5 ± 0.04 µM | No noticeable cytotoxicity |  |  | inhibition at 100 µM (KLK5): 35%; IC50 (KLK14; [5]): 39000 ± 4000 nM
16 | O=C(Oc1cccc(I)c1)c1cc2cc(CCl)ccc2oc1=O [LP14] | 0.077 ± 0.003 µM | No noticeable cytotoxicity | KLK7 | 70% | inhibition at 100 µM (KLK5): 48%
